According to patent US20250295729A1, “NOVEL THERAPEUTIC METHODS OF USING PEPTIDOGLYCAN MUROPEPTIDES TO PROMOTE ATP SYNTHASE ACTIVITY AND MITOCHONDRIAL HOMEOSTASIS AND DEVELOPMENT” (The Regents of the University of Colorado, a body corporate, priority 2021, published 2025):

What was measured:
C. elegans [1] = assay: Developmental rate (growth delay) of worms fed PG mutant E. coli with supplementation; assay type: in vivo; settings: supplement added
Method: E. coli Keio collection screen: Bacterial peptidoglycan (PG) metabolism-related genes were determined based on the published papers (Table 1) and the PG mutant sub-library was assembled from the Keio E. coli single mutant collection. Mutant bacteria strains, as well as the wild-type control strain BW25113, were cultured overnight in LB medium with 50 μg/ml kanamycin in 96-well plates at 37° C. 100 μl of the overnight E. coli cultures were spotted onto 6 cm NGM plates and dried at room temperature for 1h before use. About 200 synchronized L1 worms were then placed on the seeded NGM plates and cultured at 20° C. Animals were screened after 54-56 hours. Worm developmental rates were determined by vulval development as previously described. To quantify the developmental rate, about 50 animals were scored under Nomarski microscope. To verify the genotypes of the 4 candidate Keio mutants, PCR were performed on each mutant colony and the control BW25113 strain using specific downstream genomic primers together with kanamycin-cassette-specific primers. […]
(§1) Quantification and Statistical analysis: ImageJ software was used for quantifying fluorescence intensity of various of reporters. […]

C. elegans [2] = assay: Food avoidance behavior assay; assay type: in vivo; settings: worms fed PG mutant E. coli, supplement added
Method: Food avoidance behavior assay: Food avoidance behavior assay was determined using a method adapted from a published procedure (Kniazeva et al., 2015; Melo and Ruvkun, 2012). Briefly, overnight cultures of wild type and PG mutant E. coli were adjusted to the same OD600 and 20 μl of each culture was seeded on the center of 6 cm NGM plates. The seeded plates were dried at room temperature for 1 hour before use. About 100 synchronized L1 animals were then dropped onto the bacterial lawns and cultured for 45 hours at 20° C. The avoidance index was determined by Noff/on/Ntotal. Each assay was conducted in triplicate.
Heat-killed E. coli preparation and supplementation: We followed an established protocol to prepare heat-killed (HK) E. coli: standard overnight bacterial cultures were concentrated to 1/10 vol and were then heated in a 75° C. water bath for 90 min. For HK-E. coli supplementation, live E. coli and HK-E. coli were mixed at a 1:1 ratio then 20 μl (avoidance behavior assay) or 50 μl (other assays) mixtures were dropped on the NGM plates and dried at room temperature for 10 min before use. About 100-200 synchronized L1 animals were placed on the bacterial lawn to grow at 20° C.
PG isolation, enzyme treatment and supplementation assays: An adapted method was used to isolate peptidoglycan from bacterial cultures. […]

Phsp-6::gfp = assay: Mt stress/UPRmt reporter (Phsp-6::gfp) in worms; assay type: in vivo, C. elegans; settings: worms fed PG mutant E. coli, supplement added
Method: (§2) C. elegans strains and maintenance: C. elegans strains were grown and maintained on nematode growth media (NGM) plates seeded with the Escherichia coli strain OP50 at 20° C. The following strains were obtained from Caenorhabditis Genetics Center (CGC): N2 Bristol (wild-type control strain), SJ4100: zcIs13 [Phsp-6::gfp] V, SJ4058: zcIs9 [Phsp-60::gfp+lin-15 (+)/V, SJ4197: zcIs39 [Pdve-1::dve-1::gfp] II, SJ4005: zcIs4 [Phsp-4::gfp] V, TJ375: gpIs1 [Phsp-16.2::gfp], AY101: acIs101 [PF35E12.5::gfp+rol-6(su1006)], AU133: agIs17 [Pmyo-2::mCherry+Pirg-1::gfp] IV, CF1553: muIs84 [(pAD76) sod-3p::GFP+rol-6(su1006)]. mai-2 (xm19) was obtained from Dr. R. E. Navarro (Universidad Nacional Autonoma de Mexico).
PG isolation, enzyme treatment and supplementation assays: An adapted method was used to isolate peptidoglycan from bacterial cultures. In brief, bacterial pellets were resuspended in 1/10 vol 1M NaCl solution and boiled at 100° C. in a heating block for 1 h. […]
(§3) Microscopy: Analysis of fluorescence was performed under Nomarski optics on a Zeisis Axioplan2 microscope with a Zeiss AxioCam MRm CCD camera. […]
as §1

SOD-3::GFP = SOD-3::GFP oxidative stress reporter in worms; assay type: in vivo, C. elegans; settings: worms fed erfK mutant E. coli
Method: as §2
Chemical supplementation: The NAC (Fisher Scientific, ICN10009825) stock solution (500 mM) was made in ddH2O. For NAC supplementation, NAC solution was added in NGM agar to the final concentration of 50 mM. For iron supplementation, FeCl3 (Sigma, 236489) was dissolved in ddH2O to generate solutions of desired concentration (2 mM, 8 mM and 20 mM). […]
as §3, §1

ROS = ROS staining (H2DCFDA) in C. elegans; assay type: in vivo; settings: worms fed erfK mutant E. coli
Method: ROS measurements in C. elegans: The ROS staining protocol was modified from. Briefly, L4 stage animals were collected and washed three times with M9 buffer to remove the bacteria. Then the worms were transferred into the staining solution (H2DCFDA, 50 uM in M9 buffer) and incubated for 30 min at 20° C. After washing twice with M9 buffer, worms were subjected to microscopic examination.

Structure (SMILES)	growth delay (developmental delay) (C. elegans [1])	food avoidance behavior (C. elegans [2])	Mt stress (Phsp-6::gfp) (Phsp-6::gfp)	increase in SOD-3 level (SOD-3::GFP) (SOD-3::GFP)	ROS level (H2DCFDA staining) (ROS)
CC(=O)N[C@@H](CS)C(=O)O [NAC, N-acetyl-L-cysteine]	significantly suppressed	significantly suppressed	significantly suppressed	eliminated	suppressed
[Cl][Fe]([Cl])[Cl] [iron, FeCl3]	could not suppress		could not suppress		
